“Also recorded” adds a separate entry of the source.
Experiments:
α5GABAA receptors [1] = biological target: T1, α5GABAA receptors (Homo sapiens, UniProt P18507+P31644); settings: cited from earlier work
T1 sequence (P31644 32-462): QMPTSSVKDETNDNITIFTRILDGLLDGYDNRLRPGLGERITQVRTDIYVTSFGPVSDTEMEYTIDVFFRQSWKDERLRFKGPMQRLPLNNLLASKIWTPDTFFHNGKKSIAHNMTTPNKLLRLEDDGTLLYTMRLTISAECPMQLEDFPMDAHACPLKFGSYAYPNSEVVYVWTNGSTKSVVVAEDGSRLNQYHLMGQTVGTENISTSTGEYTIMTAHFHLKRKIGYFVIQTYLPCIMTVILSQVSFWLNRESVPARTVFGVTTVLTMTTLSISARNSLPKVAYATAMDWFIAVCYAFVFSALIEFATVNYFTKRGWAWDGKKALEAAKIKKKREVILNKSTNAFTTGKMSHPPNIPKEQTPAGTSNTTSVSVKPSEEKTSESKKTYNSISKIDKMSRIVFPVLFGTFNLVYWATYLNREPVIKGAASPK
T1 sequence (P28472 26-473 partner): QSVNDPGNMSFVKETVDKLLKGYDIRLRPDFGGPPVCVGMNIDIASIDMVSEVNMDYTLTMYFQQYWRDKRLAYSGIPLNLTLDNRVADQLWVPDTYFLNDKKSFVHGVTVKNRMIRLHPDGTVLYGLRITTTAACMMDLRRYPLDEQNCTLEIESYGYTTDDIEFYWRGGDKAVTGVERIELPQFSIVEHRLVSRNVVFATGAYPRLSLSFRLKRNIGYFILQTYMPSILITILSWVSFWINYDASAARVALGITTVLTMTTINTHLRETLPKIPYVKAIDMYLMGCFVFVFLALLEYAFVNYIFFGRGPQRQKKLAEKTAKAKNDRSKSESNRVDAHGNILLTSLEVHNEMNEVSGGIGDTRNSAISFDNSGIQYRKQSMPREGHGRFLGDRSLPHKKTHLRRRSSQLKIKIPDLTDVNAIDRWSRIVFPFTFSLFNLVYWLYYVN
T1 sequence (P18507 40-467 limits assumed): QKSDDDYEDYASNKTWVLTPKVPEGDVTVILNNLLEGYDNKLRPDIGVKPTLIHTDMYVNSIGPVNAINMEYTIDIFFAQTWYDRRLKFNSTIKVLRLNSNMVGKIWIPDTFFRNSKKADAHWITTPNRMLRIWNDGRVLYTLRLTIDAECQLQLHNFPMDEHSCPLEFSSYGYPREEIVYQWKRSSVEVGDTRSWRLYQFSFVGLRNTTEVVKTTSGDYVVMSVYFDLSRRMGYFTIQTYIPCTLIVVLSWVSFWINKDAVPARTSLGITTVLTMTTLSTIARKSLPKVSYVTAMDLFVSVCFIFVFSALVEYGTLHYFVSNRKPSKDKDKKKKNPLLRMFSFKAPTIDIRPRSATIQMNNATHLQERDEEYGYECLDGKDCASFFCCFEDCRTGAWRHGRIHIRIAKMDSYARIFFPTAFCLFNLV

[2] = tested on: α1, α2 and α3 subunit-containing GABAA receptors; settings: 1 mg/kg intraperitoneal; cited from earlier work
[3] = cited from earlier work
α5GABAA receptors [4] = assay: In vivo receptor occupancy of L-655,708 (literature); settings: 0.7 mg/kg intraperitoneal, 30 min after injection
α5GABAARs = α5GABAARs (Mus musculus, UniProt P22723+Q8BHJ7); assay: Tonic inhibitory current, whole cell voltage-clamp in cultured hippocampal neurons; type: cell-based, mice; parameters: endogenous in cells; host or cells: primary embryonic mouse hippocampal neurons, alone or co-cultured with cortical microglia
[5] = Core (rectal) temperature during anesthesia; type: in vivo, mice
Description: Mice were placed in the air-tight acrylic glass chamber for administration of the anesthetic; a rectal probe was inserted after the mice lost their righting reflex and rectal temperature was […] to measure temperature between 5 min and 1 h. The rectal probe was not inserted prior to the 5 min mark to ensure the mice were adequately anesthetized and not discomforted.

[6] = Isoflurane concentration in brain tissue (gas chromatography) and in expired gas; settings: after removal from the chamber
From the text: Following a designated recovery time, mice were sacrificed by cervical dislocation. The brains were rapidly removed at room temperature and placed in a gas-tight syringe containing polytetrafluoroethylene beads. The whole brain was immediately crushed with two strokes of the plunger and the syringe was then sealed. […] The methods are similar to that described for measurement of inhaled anesthetics in blood.^26

[7] = cited from earlier work; remark: listed apart in the source
[8] = cited from earlier work; remark: listed apart in the source

α5GABAARs, sequence (Q8BHJ7 32-463 limits assumed): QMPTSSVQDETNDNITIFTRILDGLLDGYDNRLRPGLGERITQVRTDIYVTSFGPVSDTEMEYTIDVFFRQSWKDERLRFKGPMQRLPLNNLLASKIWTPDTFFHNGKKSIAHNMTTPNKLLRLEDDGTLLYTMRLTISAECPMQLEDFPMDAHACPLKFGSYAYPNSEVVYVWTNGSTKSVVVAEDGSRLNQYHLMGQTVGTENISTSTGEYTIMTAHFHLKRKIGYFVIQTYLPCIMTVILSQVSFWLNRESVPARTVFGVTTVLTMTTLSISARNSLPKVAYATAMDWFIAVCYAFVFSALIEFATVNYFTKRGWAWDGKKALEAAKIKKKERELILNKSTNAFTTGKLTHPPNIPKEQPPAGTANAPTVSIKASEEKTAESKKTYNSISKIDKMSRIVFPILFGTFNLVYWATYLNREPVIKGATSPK
α5GABAARs, sequence (P63080 26-473 partner): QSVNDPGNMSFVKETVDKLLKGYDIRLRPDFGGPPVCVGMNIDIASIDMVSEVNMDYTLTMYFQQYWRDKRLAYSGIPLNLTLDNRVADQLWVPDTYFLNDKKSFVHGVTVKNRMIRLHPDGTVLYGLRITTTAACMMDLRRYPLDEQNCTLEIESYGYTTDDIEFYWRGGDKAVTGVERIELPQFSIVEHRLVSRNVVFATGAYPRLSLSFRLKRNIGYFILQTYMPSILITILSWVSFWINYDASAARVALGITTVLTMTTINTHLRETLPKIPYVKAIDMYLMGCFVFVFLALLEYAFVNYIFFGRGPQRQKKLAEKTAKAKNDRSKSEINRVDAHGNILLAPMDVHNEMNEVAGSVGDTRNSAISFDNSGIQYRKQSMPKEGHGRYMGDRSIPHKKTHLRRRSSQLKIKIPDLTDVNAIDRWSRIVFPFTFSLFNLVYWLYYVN
α5GABAARs, sequence (P22723 39-474): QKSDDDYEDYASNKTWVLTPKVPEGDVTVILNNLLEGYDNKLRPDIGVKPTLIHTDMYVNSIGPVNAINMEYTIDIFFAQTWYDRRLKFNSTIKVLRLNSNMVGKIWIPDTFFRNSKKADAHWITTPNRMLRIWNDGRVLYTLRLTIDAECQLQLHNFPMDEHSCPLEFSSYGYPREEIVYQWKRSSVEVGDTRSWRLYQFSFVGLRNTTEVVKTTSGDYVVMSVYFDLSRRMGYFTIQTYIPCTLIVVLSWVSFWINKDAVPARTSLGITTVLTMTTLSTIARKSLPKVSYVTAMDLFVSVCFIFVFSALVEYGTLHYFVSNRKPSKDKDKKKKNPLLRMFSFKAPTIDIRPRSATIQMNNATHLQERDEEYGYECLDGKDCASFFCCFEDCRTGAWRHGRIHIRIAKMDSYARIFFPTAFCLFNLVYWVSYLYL

## CCOC(=O)c1ncn2c1[C@@H]1CCCN1C(=O)c1cc(OC)ccc1-2 [L-655,708]
α5GABAA receptors [1]
  affinity for α5GABAA receptors relative to other receptor subtypes: 50 fold
  preference for α5GABAA receptors over α2 subunit-containing GABAA receptors: 61 fold
  preference for α5GABAA receptors over α3 subunit-containing GABAA receptors: 54 fold
α5GABAA receptors [1]; in vitro electrophysiological and biochemical studies
  preference for α5GABAA receptors over α1 subunit-containing GABAA receptors: 107 fold
[2]
  occupancy of α1, α2 and α3 subunit-containing GABAA receptors: 18%
[3]; rat, in vivo
  half-life: 30 min
  time of peak: 0.25 h
[3]; subcutaneous injection
  brain versus plasma concentrations (in words): concentrations in the brain mimic those in the plasma
α5GABAA receptors [4]
  estimated occupancy of α5GABAA receptors in vivo: 60-70%
α5GABAARs; L-655,708 20 nM, n=11, read-out: inhibition of the IL-1β-enhanced tonic current
  inhibition at 0.02 µM: 66.1%
α5GABAARs; L-655,708 20 nM, n=12
  IL-1β-modulated tonic current: 69.2±4.4 % of control
α5GABAARs; cultured hippocampal neurons
  effect on the tonic current (in words): the tonic current is selectively inhibited; also recorded: reverses enhancement of the tonic current by the inhaled anaesthetics isoflurane and desflurane; also recorded: reverses the sevoflurane-induced increase in tonic inhibitory conductance generated by GABAA receptors

## FC(F)OC(Cl)C(F)(F)F (stereo not drawn) [isoflurane]
[5]; 5 min after introduction into the anesthetic chamber
  rectal temperature: 37.8±0.4 °C
[5]; 1 h after induction
  rectal temperature: 37.8±0.4 °C
[6]
  time until isoflurane in expired gas is undetectable: ≤ 7 min
[7]; after 270 min of elimination following isoflurane 1.3% for 90 min
  fraction that had left the brain: 96%
[7]; humans
  elimination, initial fast component: 5 min
  elimination, slower component: 15 min
[7]; in vivo
  fraction metabolized: less than 0.2%
  fraction recovered in expired gas: ~100%
[7]; within 270 min, laboratory animals
  fraction eliminated from the brain: 97%
[8]; administered during contextual fear learning
  concentration required to impair the freezing response: 0.6%
[8]; rat, in vivo
  concentration required for memory blockade during anesthesia: 0.4%
[8]; rats
  threshold concentration that impaired memory performance during fear conditioning: 0.2%

— patent US9517265B2, “Methods for the prevention and/or treatment of memory impairment” (The Governing Council of the University of Toronto, priority 2010, dated 2016)
